The text below walks through data of ChEMBL document CHEMBL1154980, “Tetrapeptides possessing a unique skeleton, JBIR-34 and JBIR-35, isolated from a sponge-derived actinomycete, Streptomyces sp. Sp080513GE-23” (J Nat Prod, 2010).

By IC50 is commonly meant the concentration needed to halve the response being measured.

In assay [1] the test system is Escherichia coli. The experiment in a line: Antibacterial activity against Escherichia coli. The class given is functional, organism-based.
In assay [2] the test system is Radical scavenging activity. The experiment in a line: Antioxidant activity assessed as DPPH radical scavenging activity after 1 hr. Format: functional. For orientation: DPPH is a stable violet radical that fades when it is reduced.
Assay [3] has as its system Micrococcus luteus. The experiment in a line: Antibacterial activity against Micrococcus luteus. The class given is functional, organism-based.

Molecules are shown by their SMILES. Active and inactive are the calls of the source. The calls are words filed in the database; no cut-off is given here.

Regarding `Cc1c(Cl)cc2c(c(C3=N[C@@](C)(C(=O)N[C@H](C)C(=O)N[C@@H](CO)C(=O)O)CO3)cn2C)c1O`, the outcome in assay [1] and in assay [3] was inactive. Moreover, the IC50 in assay [2] amounted to 1000 µM.
`Cc1c(C)c2c(c(C)c1O)CC[C@@](C)(CCC[C@H](C)CCC[C@H](C)CCCC(C)C)O2` [ALPHA-TOCOPHEROL]: the IC50 in assay [2] was 50 µM.
For the molecule `C[C@@H](NC(=O)[C@@]1(C)COC(c2cn(C)c3cc(Cl)cc(O)c23)=N1)C(=O)N[C@@H](CO)C(=O)O`, the outcome in assay [1] and in assay [3] was inactive. For the same molecule, in assay [2], the IC50 stood at 2500 µM.
